# In patent publication US6806293B1, “Use of pheromone compounds having MAP kinase modulating activity” (Darley Pharmaceuticals LTD, priority 2001, dated 2004):
# Assays:
# Assay type in all cases: cell-based, rat
# MAP kinase [1] = test: Inhibition of EGF-stimulated MAP kinase activity in Rat1 cells (Example 2, western blot with anti-active-MAPK antibodies, densitometry); settings: compound 10^-4 M preincubated about 30 min; for Inhibition of MAP Kinase activity (% of Control), 15 minute activation by EGF: EGF 25 ng/ml for 15 minutes
# Description: Rat1 cells grown in a series of cell culture dishes were prepared in the same manner described above in Example 1. The cells were serum-starved for 16 hours. Three groups of cell culture dishes containing Rat1 cells were each preincubated for about 30 minutes with solution containing the pheromone compound, trans-3, cis-7-tetradecadienyl-acetate at a concentration of 10^−4 M, with a solution containing the pheromone compound, trans-3, cis-8-tetradecadienyl-acetate at a concentration of 10^−4 M, or a control solution absent any pheromone compound. After preincubation, all of the Rat1 cells were stimulated with epidermal growth factor (EGF) (25 ng/ml) for about 15 minutes for one group and 30 minutes for a second group. The Rat1 cells were then washed with phosphate buffered saline (PBS) and lysed with RIPA buffer. The proteins were then separated by sodium dodecyl sulfate-polyacrylamide gel electrophoresis (SDS-PAGE) and probed with anti-active-MAPK antibodies. The inhibitory effect of the pheromone compound on MAPK activity was calculated as the percent EGF-induced activity as indicated by densitometry analysis as compared to the control receiving no pheromone compound.
# MAP kinase [2] = test: Screening method for pheromone compounds having MAP kinase modulating activity in Rat1 cells (Example 1); settings: observed on screening in accordance with the described methods
# Description: In a preferred screening method, as set forth in Example 1 herein, pheromone compounds with MAP kinase modulating activity are identified using Rat1 cells grown in cell culture dishes. Samples of the pheromone compound are added to respective cell culture dishes containing the Rat1 cells and incubated. A control group is established by treating a separate group of cell culture dishes containing Rat1 cells with the same solutions absent the pheromone compound. After incubation, the Rat1 cells are stimulated with epidermal growth factor to stimulate MAP kinase activation in the Rat1 cells. Upon completion of the incubation period, the Rat1 cells in each of the culture dishes are separately processed to obtain the corresponding cell extract containing proteins indicative of active kinase. The proteins are then separated using known electrophoresis techniques and prepared as a blot for the detection and measurement of active MAP kinase. The resulting blot is analyzed using densitometric techniques to measure the corresponding activity of the tested pheromone compound.
# Rat1 cells were grown in 6 cm cell culture dishes in a tissue culture incubator at 37° C. in an atmosphere containing 5% carbon dioxide. The cells were serum-starved for 16 hours. […] A control group was established by adding to the remaining cell culture dishes the same solution absent the pheromone compound. After the 15 minute period, the Rat1 cells were stimulated with epidermal growth factor (EGF) (50 ng/ml) for about 15 minutes for one group and 30 minutes for a second group.
# The Rat1 cells were then treated to remove the corresponding incubation medium and then the cells were rinsed twice each with 5 ml of cold phosphate buffered saline (PBS) and once with 5 ml of cold homogenizing buffer (Buffer H) containing 50 mM of β-glycerophosphate, (pH 7.3), 1.5 mM of ethylenebis(oxyethylenenitrilo)tetraacetic acid (EGTA), 1 mM of ethylenediaminetetraacetic acid (EDTA), 1 mM of dithiothreitol (DTT), 0.1 mM sodium orthovanadate, 1 mM benzamidine, 10 μg/ml of aprotinin, 10 μg/ml of leupeptin, and 2 μg/ml of pepstatin (2 μg/ml)+1% Triton-X-100.
# The cells were harvested and lysed with 350 μl of cold Buffer H. Alternatively, the cells may be harvested and lysed with radioimmunoprotein assay buffer (RIPA buffer). Each extract was then centrifuged at 15,000×g for 15 minutes at 4° C. The resulting supernatants contained the protein extracts to be examined and were transferred to fresh, pre-cooled test tubes and kept on ice.
# The proteins were then separated by sodium dodecyl sulfate-polyacrylamide gel electrophoresis (SDS-PAGE) and transferred, by western blotting, onto a nitrocellulose membrane.
# The blot produced above was blocked with 2% bovine serum albumin (BSA) in Tris-buffered saline/Tween-20 (TBST) for 1 hour. The blot was then incubated with a monoclonal anti-active MAP kinase antibody obtained from Sigma, and diluted according to the manufacturer recommendations. The blot was incubated overnight at 4° C. Alternatively, the blot may also be incubated for about 30 minutes at 37° C., or from one to two hours at room temperature.
# The treated blot was placed in a flat container and washed at least 3 times for 15 minutes each with TBST buffer at room temperature. The blot was then incubated with alkaline phosphatase-conjugated goat anti-mouse IgG obtained from Jackson Laboratories, diluted according to the manufacturer recommendations in TBST buffer for 45 minutes at room temperature. The blot was then subjected to a second washing, repeated 3 times, for 10 minutes each with TBST. An alkaline phosphatase (AP) detection technique was utilized to detect and measure the presence of active MAP kinase. Enhanced MAP kinase activity as compared to control is evidence that the compound is a MAP kinase activator. Lowered MAP kinase activity as compared to control is evidence that the compound is a MAP kinase inhibitor. […]
# MAP kinase [3] = test: MAP kinase activation in Rat1 cells compared to EGF and TPA (Example 3, western blot, densitometry); settings: 15 minutes
# Description: Rat1 cells were grown in 6 cm cell culture dishes in a tissue culture incubator at 37° C. in an atmosphere containing 5% carbon dioxide. The Rat1 cells were serum-starved for 16 hours. Three groups of the Rat1 cells were then treated for 15 minutes with either epidermal growth factor (EGF) (50 ng/ml), 12-O-tetradecanoylphorbol-13-acetate (TPA) (100nM), or with one of the pheromone compounds at one of two concentrations identified in Table 2 below. EGF and TPA are compounds which are known to activate MAP kinase and therefore serve as a basis of comparing the relative activity of the pheromone compounds. The cells were then washed with phosphate buffered saline (PBS) and lysed with radioimmunoprotein assay (RIPA) buffer. The proteins were then separated by sodium dodecyl sulfate-polyacrylamide gel electrophoresis (SDS-PAGE), transferred onto a nitrocellulose membrane and probed with anti-MAPK antibodies to produce a blot. The MAP kinase activity for the EGF-treated cells, the TPA-treated cells and the pheromone compound-treated cells, was analyzed and calculated using densitometric analysis. The results shown in Table 2 are presented as percent of EGF-stimulated active MAP kinase levels or TPA-stimulated active MAP kinase levels, respectively.
Compound,"Inhibition of MAP Kinase activity (% of Control), 15 minute activation by EGF (MAP kinase [1]) [%]","Inhibition of MAP Kinase activity (% of Control), 30 minute activation by EGF (MAP kinase [1]; EGF 25 ng/ml for 30 minutes) [%]",mitogen-activating protein kinase modulation activity (activator or inhibitor) (MAP kinase [2]),"Activity (% of EGF-activation), Conc. 1 (MAP kinase [3]; compound 1 × 10^-4 M, relative to EGF 50 ng/ml) [%]","Activity (% of TPA-activation), Conc. 1 (MAP kinase [3]; compound 1 × 10^-4 M, relative to TPA 100 nM) [%]","Activity (% of EGF-activation), Conc. 2 (MAP kinase [3]; compound 1 × 10^-5 M, relative to EGF 50 ng/ml) [%]","Activity (% of TPA-activation), Conc. 2 (MAP kinase [3]; compound 1 × 10^-5 M, relative to TPA 100 nM) [%]"
"CCCCCC/C=C\CC/C=C/CCOC(C)=O [Trans-3,Cis-7-Tetradecadienyl-acetate]",75,85,inhibitors,–,–,–,–
"CCCCC/C=C\CCC/C=C/CCOC(C)=O [Trans-3,Cis-8-Tetradecadienyl-acetate]",50,–,inhibitors,–,–,–,–
Heneicosene-11-one,–,–,activators,12,42,12,22
